Source: publication PMC4457528, “Identification of Novel Small Molecule Inhibitors of Oncogenic RET Kinase” (PLoS ONE, 2015)
Like-named read-outs stand apart in the source and are kept apart here.

Key:
Experiment in all cases: KinomeScan kinase panel, single concentration 10 µM
Assay type in all cases: binding
KinomeScan kinase panel [1] = target: T1, KinomeScan kinase panel (Homo sapiens, UniProt O75914); details: PAK3, 10 µM; read-out: score (%)
T1 construct: purchased DiscoveRx (KinomeScan)

KinomeScan kinase panel [2] = target: T2, KinomeScan kinase panel (Homo sapiens, UniProt P00533, L858R); details: EGFR(L858R), 10 µM
T2 construct: purchased DiscoveRx (KinomeScan)
T2 sequence (P00533 25-1210 L858R): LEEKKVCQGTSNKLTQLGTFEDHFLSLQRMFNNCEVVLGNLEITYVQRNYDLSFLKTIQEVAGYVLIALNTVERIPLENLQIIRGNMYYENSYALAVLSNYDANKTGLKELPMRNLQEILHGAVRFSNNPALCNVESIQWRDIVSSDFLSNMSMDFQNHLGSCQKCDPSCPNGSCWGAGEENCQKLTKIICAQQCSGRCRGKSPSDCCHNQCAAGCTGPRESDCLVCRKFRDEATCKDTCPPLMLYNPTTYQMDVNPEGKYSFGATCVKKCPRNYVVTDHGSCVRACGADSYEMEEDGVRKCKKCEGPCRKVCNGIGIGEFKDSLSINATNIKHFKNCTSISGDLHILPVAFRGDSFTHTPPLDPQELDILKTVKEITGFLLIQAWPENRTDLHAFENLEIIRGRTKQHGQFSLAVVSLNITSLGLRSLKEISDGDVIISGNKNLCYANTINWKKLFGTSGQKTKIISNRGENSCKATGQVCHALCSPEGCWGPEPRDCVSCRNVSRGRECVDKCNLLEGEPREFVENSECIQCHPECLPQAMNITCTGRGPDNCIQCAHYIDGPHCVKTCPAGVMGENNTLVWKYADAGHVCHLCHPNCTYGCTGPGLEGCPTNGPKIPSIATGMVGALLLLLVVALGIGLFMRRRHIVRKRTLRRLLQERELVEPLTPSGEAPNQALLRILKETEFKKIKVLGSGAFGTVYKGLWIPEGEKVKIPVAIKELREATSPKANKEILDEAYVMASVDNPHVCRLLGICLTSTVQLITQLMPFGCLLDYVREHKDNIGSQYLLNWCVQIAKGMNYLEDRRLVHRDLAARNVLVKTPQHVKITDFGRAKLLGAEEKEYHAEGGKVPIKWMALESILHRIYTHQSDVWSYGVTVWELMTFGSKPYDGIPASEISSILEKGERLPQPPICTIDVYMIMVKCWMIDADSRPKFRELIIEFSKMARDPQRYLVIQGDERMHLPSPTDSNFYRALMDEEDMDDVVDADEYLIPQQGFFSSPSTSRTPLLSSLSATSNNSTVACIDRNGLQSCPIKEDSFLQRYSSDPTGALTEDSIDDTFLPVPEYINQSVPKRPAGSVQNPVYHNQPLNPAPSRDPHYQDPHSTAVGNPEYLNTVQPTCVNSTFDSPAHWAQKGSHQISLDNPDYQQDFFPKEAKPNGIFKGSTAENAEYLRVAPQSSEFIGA

KinomeScan kinase panel [3] = target: T3, KinomeScan kinase panel (Homo sapiens, UniProt P10721); details: KIT, 10 µM; read-out: score (%)
T3 construct: purchased DiscoveRx (KinomeScan)
T3 sequence (P10721 26-976): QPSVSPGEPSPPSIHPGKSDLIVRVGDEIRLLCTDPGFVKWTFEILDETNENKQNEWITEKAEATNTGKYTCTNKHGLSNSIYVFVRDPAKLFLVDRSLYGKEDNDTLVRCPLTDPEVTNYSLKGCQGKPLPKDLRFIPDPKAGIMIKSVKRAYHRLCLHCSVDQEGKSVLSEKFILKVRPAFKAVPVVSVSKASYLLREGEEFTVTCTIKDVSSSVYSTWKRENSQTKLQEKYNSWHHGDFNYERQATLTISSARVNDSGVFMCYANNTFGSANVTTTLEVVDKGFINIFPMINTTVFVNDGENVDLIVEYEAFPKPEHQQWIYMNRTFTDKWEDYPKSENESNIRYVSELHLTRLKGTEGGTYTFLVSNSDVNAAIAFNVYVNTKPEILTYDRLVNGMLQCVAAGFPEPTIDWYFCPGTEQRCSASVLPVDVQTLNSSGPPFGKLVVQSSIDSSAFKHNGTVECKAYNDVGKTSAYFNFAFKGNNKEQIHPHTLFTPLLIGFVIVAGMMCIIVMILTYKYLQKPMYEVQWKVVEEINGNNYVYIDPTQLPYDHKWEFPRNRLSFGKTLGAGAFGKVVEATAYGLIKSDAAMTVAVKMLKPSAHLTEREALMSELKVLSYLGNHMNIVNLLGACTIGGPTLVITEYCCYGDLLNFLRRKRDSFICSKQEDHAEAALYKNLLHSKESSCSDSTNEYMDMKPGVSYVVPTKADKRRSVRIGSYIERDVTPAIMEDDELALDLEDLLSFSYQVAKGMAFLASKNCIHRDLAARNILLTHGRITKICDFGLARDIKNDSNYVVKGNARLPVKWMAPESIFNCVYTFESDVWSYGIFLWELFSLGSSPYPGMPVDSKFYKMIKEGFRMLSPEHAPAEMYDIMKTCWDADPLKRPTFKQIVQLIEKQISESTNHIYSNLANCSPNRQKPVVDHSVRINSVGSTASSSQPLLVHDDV

KinomeScan kinase panel [4] = target: T4, KinomeScan kinase panel (Homo sapiens, UniProt P22607); details: FGFR3, 10 µM; read-out: score (%)
T4 construct: purchased DiscoveRx (KinomeScan)
T4 sequence (P22607 23-806): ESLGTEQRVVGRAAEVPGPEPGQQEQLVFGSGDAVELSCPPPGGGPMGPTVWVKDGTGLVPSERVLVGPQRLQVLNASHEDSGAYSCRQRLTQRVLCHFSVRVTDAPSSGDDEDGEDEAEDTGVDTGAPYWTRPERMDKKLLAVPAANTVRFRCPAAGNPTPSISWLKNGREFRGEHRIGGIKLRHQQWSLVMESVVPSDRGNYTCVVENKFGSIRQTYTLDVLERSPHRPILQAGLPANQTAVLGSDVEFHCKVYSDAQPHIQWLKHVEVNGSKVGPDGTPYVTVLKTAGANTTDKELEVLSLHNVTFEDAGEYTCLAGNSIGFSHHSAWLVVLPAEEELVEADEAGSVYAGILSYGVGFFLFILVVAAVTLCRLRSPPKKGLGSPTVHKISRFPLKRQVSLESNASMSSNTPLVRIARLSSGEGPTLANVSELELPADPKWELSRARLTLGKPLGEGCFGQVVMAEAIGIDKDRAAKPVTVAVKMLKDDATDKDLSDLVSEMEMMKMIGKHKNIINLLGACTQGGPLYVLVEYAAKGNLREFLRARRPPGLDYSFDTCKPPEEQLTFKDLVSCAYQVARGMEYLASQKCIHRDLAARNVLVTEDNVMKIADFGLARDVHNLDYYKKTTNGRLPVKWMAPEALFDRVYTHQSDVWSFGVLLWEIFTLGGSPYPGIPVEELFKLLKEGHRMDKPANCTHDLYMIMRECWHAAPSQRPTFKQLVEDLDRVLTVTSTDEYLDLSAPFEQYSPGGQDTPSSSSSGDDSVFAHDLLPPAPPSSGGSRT

KinomeScan kinase panel [5] = target: T5, KinomeScan kinase panel (Homo sapiens, UniProt P36897); details: read-out: score (%)
T5 construct: purchased DiscoveRx (KinomeScan)
T5 sequence (P36897 34-503): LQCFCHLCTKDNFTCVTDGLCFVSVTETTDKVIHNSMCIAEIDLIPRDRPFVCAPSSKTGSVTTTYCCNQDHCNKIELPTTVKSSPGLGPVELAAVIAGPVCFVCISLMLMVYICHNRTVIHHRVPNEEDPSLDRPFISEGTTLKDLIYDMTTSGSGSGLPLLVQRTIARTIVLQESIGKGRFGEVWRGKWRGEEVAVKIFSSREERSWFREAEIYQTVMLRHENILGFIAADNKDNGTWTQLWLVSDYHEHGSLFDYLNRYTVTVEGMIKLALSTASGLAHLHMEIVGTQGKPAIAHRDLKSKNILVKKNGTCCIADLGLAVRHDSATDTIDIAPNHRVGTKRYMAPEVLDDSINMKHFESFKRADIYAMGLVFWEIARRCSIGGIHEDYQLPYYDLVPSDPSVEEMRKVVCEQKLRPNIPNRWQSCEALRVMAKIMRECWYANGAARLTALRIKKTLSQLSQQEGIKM

KinomeScan kinase panel [6] = target: T6, KinomeScan kinase panel (Homo sapiens, UniProt P78362); details: read-out: score (%)
T6 construct: purchased DiscoveRx (KinomeScan)

KinomeScan kinase panel [7] = target: T7, KinomeScan kinase panel (Homo sapiens, UniProt Q05397); details: read-out: score (%)
T7 construct: purchased DiscoveRx (KinomeScan)
T7 sequence (Q05397 whole entry): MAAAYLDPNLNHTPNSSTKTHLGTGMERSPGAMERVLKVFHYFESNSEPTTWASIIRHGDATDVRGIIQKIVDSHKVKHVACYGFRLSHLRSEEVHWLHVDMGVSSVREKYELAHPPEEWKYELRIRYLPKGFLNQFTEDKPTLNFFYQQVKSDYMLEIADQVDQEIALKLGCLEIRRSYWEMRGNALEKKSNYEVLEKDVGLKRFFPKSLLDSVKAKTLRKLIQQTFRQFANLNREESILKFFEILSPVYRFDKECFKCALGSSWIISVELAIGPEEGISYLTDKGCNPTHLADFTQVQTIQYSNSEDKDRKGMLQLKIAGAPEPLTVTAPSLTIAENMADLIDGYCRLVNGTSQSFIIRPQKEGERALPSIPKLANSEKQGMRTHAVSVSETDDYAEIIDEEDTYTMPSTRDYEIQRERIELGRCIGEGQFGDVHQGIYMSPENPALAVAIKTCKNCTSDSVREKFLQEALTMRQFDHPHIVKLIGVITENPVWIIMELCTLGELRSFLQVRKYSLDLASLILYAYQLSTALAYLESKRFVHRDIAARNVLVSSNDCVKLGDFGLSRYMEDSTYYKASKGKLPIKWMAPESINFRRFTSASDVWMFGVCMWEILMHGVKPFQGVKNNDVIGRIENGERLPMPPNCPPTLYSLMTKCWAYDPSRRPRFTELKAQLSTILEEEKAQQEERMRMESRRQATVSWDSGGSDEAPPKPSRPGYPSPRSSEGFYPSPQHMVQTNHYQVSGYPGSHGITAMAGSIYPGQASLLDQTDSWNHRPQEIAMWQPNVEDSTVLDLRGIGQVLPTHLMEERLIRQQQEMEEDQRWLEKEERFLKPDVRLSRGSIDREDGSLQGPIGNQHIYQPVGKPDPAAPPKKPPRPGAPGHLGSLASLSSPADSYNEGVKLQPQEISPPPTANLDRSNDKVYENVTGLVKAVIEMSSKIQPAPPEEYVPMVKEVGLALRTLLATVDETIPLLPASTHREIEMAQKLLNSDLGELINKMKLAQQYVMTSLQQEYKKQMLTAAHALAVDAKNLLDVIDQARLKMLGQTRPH

KinomeScan kinase panel [8] = target: T8, KinomeScan kinase panel (Homo sapiens, UniProt Q13043); details: MST1, 10 µM
T8 construct: purchased DiscoveRx (KinomeScan)
T8 sequence (Q13043 1-487): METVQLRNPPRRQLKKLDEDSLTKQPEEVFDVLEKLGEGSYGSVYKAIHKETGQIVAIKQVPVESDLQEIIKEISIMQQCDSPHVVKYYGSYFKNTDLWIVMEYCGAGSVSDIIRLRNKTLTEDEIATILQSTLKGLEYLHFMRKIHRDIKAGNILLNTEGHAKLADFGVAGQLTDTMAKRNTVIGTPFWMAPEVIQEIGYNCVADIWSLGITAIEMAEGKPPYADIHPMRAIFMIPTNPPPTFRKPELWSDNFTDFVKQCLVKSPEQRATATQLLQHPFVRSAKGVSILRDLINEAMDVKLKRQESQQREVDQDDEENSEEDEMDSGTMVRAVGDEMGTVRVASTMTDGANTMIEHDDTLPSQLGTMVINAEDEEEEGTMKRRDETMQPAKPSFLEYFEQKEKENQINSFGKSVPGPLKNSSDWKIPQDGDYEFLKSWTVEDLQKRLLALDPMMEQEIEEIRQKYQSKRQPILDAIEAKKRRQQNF

KinomeScan kinase panel [9] = target: T9, KinomeScan kinase panel (Homo sapiens, UniProt Q16566); details: CAMK4, 10 µM; read-out: score (%)
T9 construct: purchased DiscoveRx (KinomeScan)
T9 sequence (Q16566 1-473): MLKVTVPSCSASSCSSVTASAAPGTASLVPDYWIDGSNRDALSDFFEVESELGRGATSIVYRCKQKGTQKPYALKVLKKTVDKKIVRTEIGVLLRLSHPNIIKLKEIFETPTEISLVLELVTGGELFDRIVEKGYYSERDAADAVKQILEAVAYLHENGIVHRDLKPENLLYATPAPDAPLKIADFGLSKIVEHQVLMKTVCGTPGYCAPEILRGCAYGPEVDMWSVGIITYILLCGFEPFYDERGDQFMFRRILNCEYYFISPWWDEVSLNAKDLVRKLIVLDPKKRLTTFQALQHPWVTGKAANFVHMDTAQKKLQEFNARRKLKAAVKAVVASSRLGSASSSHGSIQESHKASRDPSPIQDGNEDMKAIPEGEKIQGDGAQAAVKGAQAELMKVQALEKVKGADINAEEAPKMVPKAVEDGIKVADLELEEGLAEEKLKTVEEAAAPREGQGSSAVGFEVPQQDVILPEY

KinomeScan kinase panel [10] = target: T10, KinomeScan kinase panel (Homo sapiens, UniProt Q8IW41); details: MAPKAPK5, 10 µM; read-out: score (%)
T10 construct: purchased DiscoveRx (KinomeScan)
T10 sequence (Q8IW41 1-473): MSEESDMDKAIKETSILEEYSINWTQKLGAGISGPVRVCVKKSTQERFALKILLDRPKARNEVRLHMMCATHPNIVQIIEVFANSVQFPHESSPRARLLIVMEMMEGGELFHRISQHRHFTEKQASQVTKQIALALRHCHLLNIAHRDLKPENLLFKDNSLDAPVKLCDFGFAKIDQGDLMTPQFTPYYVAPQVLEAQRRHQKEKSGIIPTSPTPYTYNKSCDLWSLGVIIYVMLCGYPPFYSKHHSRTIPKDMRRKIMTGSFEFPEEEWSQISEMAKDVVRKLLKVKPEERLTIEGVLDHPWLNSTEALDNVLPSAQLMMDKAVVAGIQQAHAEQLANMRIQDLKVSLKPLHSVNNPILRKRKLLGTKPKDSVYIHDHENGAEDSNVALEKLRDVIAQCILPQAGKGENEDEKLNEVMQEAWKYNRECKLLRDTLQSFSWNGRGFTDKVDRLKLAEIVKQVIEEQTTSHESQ

KinomeScan kinase panel [11] = target: T11, KinomeScan kinase panel (Homo sapiens, UniProt Q9BUB5); details: MKNK1, 10 µM; read-out: score (%)
T11 construct: purchased DiscoveRx (KinomeScan)
T11 sequence (Q9BUB5 whole entry): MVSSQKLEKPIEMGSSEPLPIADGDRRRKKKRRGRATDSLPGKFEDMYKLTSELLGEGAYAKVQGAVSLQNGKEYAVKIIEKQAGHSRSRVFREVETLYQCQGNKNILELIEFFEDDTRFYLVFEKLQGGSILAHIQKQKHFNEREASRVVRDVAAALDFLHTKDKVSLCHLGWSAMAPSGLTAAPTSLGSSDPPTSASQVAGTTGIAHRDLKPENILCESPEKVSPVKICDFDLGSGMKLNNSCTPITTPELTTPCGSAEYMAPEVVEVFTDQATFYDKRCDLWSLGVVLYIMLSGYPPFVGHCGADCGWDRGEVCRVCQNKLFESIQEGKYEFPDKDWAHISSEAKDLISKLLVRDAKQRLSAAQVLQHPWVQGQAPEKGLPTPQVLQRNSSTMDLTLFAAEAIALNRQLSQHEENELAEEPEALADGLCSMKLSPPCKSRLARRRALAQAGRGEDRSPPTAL

KinomeScan kinase panel [12] = target: T12, KinomeScan kinase panel (Homo sapiens, UniProt Q9HAZ1); details: CLK4, 10 µM; read-out: score (%)
T12 construct: purchased DiscoveRx (KinomeScan)
T12 sequence (Q9HAZ1 whole entry): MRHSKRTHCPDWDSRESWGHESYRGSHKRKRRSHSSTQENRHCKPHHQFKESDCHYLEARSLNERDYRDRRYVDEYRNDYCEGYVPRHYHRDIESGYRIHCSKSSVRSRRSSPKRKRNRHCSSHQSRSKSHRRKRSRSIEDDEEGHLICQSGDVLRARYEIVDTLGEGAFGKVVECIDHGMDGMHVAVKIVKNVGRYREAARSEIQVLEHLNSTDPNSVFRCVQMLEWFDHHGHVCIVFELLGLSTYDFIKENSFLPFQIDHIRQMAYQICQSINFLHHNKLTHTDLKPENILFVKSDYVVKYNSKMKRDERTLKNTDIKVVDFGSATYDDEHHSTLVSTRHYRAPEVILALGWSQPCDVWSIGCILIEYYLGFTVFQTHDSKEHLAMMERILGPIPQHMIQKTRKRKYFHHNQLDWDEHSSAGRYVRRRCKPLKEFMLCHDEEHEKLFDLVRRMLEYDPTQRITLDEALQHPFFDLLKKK

Row | remaining binding at 10 µM (KinomeScan kinase panel [5]; TGFBR1, 10 µM) [%] | remaining binding at 10 µM (KinomeScan kinase panel [6]; SRPK2, 10 µM) [%] | remaining binding at 10 µM (KinomeScan kinase panel [7]; PTK2, 10 µM) [%] | SMILES | remaining binding at 10 µM (KinomeScan kinase panel [1]) [%] | score (%) (KinomeScan kinase panel [2]) | remaining binding at 10 µM (KinomeScan kinase panel [3]) [%] | remaining binding at 10 µM (KinomeScan kinase panel [4]) [%] | remaining binding at 10 µM (KinomeScan kinase panel [5]; kinase TGFBR1, 10 µM) [%] | remaining binding at 10 µM (KinomeScan kinase panel [6]; kinase SRPK2, 10 µM) [%] | remaining binding at 10 µM (KinomeScan kinase panel [7]; FAK, 10 µM) [%] | score (%) (KinomeScan kinase panel [8]) | remaining binding at 10 µM (KinomeScan kinase panel [9]) [%] | remaining binding at 10 µM (KinomeScan kinase panel [10]) [%] | remaining binding at 10 µM (KinomeScan kinase panel [11]) [%] | remaining binding at 10 µM (KinomeScan kinase panel [12]) [%]
1 |  |  |  | CCN1CCN(Cc2ccc(NC(=O)c3ccc(C)c(C#Cc4cccnc4)c3)cc2C(F)(F)F)CC1 [XMD15-44] | 3.3 | 4 | 0 | 0.3 | 100 | 81 | > 30 | 23 | > 30 | > 30 | 0.25 | 15
2 | > 30 | 28 | > 30 | CCN1CCN(Cc2ccc(NC(=O)c3ccc(C)c(/C=C/c4cnc5[nH]ccc5c4Cl)c3)cc2C(F)(F)F)CC1 [HG-6-63-01, (E)-3-(2-(4-chloro-1H-pyrrolo[2,3-b]pyridin-5-yl)vinyl)-N-(4-((4-ethylpiperazin-1-yl)methyl)-3-(trifluoromethyl)phenyl)-4-methylbenzamide] | 30 | 0.4 | 0 | 2.4 |  |  |  | 26 | > 30 | > 30 | > 30 | > 30
3 |  |  |  | CCN1CCN(Cc2ccc(NC(=O)c3ccc(C)c(NC(=O)c4cncc(-c5cccs5)c4)c3)cc2C(F)(F)F)CC1 [ALW-II-41-27] | > 30 | 0.25 | 0 | > 30 | > 30 | > 30 | > 30 | 21 | > 30 | > 30 | 14 | 5.3
